From US9181218B2, “Compounds for improved stem cell differentiation into hepatocytes” (Hoffmann-La Roche Inc., priority 2013, dated 2015)

Tested on: interferon-stimulated genes (ISGs)
Test: Microarray analysis of iCell Hepatocytes treated with the compound of example 1
Type: cell-based, Human
Excerpt: iCell Hepatocytes treated with the compound of example 1 results in the up and down-regulation of a host of genes; including a kinetic effect on interferon-stimulated gene (ISGs) expression. See FIGS. 15-I and 15-II, 16-I and 16-II and 18 and Table 1.

Question: Which results are given for `O=C(NCc1cccc(F)c1)c1cccc2nc(-c3c(NC[C@@H](O)c4ccccc4)cc[nH]c3=O)[nH]c12` [Example 1, 2-[4-((S)-2-hydroxy-2-phenyl-ethylamino)-2-oxo-1,2-dihydro-pyridin-3-yl]-3H-benzoimidazole-4-carboxylic acid 3-fluoro-benzylamide]?
Answer: IFITM2 Raw Est Fold Change (24 HOUR): −1.90; IFITM3 Raw Est Fold Change (24 HOUR): −1.36; IFNGR1 Raw Est Fold Change (24 HOUR): −2.46; IGHM Raw Est Fold Change (24 HOUR): −2.00; IL6 Raw Est Fold Change (24 HOUR): −4.57; IL6ST Raw Est Fold Change (24 HOUR): −1.25; IL8 Raw Est Fold Change (24 HOUR): −4.32; IL28RA Raw Est Fold Change (24 HOUR): 1.28; IMPA2 Raw Est Fold Change (24 HOUR): −1.80; IQGAP1 Raw Est Fold Change (24 HOUR): −1.70; IRF3 Raw Est Fold Change (24 HOUR): 1.26; IRF7 Raw Est Fold Change (24 HOUR): −3.86; ISG20 Raw Est Fold Change (24 HOUR): −1.70; ISGF3G Raw Est Fold Change (24 HOUR): −1.37; ITGA2 Raw Est Fold Change (24 HOUR): −1.94; JAK1 Raw Est Fold Change (24 HOUR): −1.17; JAK2 Raw Est Fold Change (24 HOUR): −1.29; JUNB Raw Est Fold Change (24 HOUR): −4.94; KDELR2 Raw Est Fold Change (24 HOUR): −1.19; KIAA0040 Raw Est Fold Change (24 HOUR): −5.04; KPNB1 Raw Est Fold Change (24 HOUR): −1.12; LEPR Raw Est Fold Change (24 HOUR): 2.89; LIFR Raw Est Fold Change (24 HOUR): 1.33; LRG1 Raw Est Fold Change (24 HOUR): −2.10; LRP4 Raw Est Fold Change (24 HOUR): −2.17; MAFB Raw Est Fold Change (24 HOUR): 2.60; MAFF Raw Est Fold Change (24 HOUR): −2.09; MAP3K8 Raw Est Fold Change (24 HOUR): −3.81; MCL1 Raw Est Fold Change (24 HOUR): −1.16; MLKL Raw Est Fold Change (24 HOUR): −1.78; MSR1 Raw Est Fold Change (24 HOUR): −2.06; MT1M Raw Est Fold Change (24 HOUR): −3.35; MT1X Raw Est Fold Change (24 HOUR): −6.73; MTHFD2L Raw Est Fold Change (24 HOUR): −2.20; MTMR1 Raw Est Fold Change (24 HOUR): −1.14; MYD88 Raw Est Fold Change (24 HOUR): 1.15; MYT1 Raw Est Fold Change (24 HOUR): −3.59; N4BP1 Raw Est Fold Change (24 HOUR): −1.40; NFE2 Raw Est Fold Change (24 HOUR): −8.28; NFKBIA Raw Est Fold Change (24 HOUR): −1.38; NPAS2 Raw Est Fold Change (24 HOUR): −2.77; NUB1 Raw Est Fold Change (24 HOUR): −1.47; PADI2 Raw Est Fold Change (24 HOUR): 2.66; PCGF2 Raw Est Fold Change (24 HOUR): 1.44; PCMT1 Raw Est Fold Change (24 HOUR): −1.10; PCTK2 Raw Est Fold Change (24 HOUR): −1.85; PCTK3 Raw Est Fold Change (24 HOUR): 1.59; PDGFA Raw Est Fold Change (24 HOUR): 1.23; PDGFRL Raw Est Fold Change (24 HOUR): −1.86; PDK1 Raw Est Fold Change (24 HOUR): −1.48; PEX26 Raw Est Fold Change (24 HOUR): 1.29; PIM3 Raw Est Fold Change (24 HOUR): −2.56; PLOD2 Raw Est Fold Change (24 HOUR): −1.22; PLSCR1 Raw Est Fold Change (24 HOUR): −3.34; PNRC1 Raw Est Fold Change (24 HOUR): −2.42; PPIC Raw Est Fold Change (24 HOUR): −1.23; PPP1R3D Raw Est Fold Change (24 HOUR): −1.49; PSCD1 Raw Est Fold Change (24 HOUR): −1.21; PSMA2 Raw Est Fold Change (24 HOUR): 1.27; PSMB9 Raw Est Fold Change (24 HOUR): −1.86; PTEN Raw Est Fold Change (24 HOUR): 1.23; RAB27A Raw Est Fold Change (24 HOUR): −2.33; RANBP1 Raw Est Fold Change (24 HOUR): 1.13; RBCK1 Raw Est Fold Change (24 HOUR): 1.34; RBL1 Raw Est Fold Change (24 HOUR): −4.92; RBMS1 Raw Est Fold Change (24 HOUR): −1.38; RHOH Raw Est Fold Change (24 HOUR): 5.26; RXRA Raw Est Fold Change (24 HOUR): 1.46; SAT Raw Est Fold Change (24 HOUR): −1.57; SDC2 Raw Est Fold Change (24 HOUR): 1.96; SERPINB9 Raw Est Fold Change (24 HOUR): −1.86; SFPQ Raw Est Fold Change (24 HOUR): −1.39; SFTPC Raw Est Fold Change (24 HOUR): −1.66; SLC15A2 Raw Est Fold Change (24 HOUR): −1.58; SLC25A28 Raw Est Fold Change (24 HOUR): −1.54; SLC25A30 Raw Est Fold Change (24 HOUR): 1.53; SMAD3 Raw Est Fold Change (24 HOUR): −1.19; SOAT2 Raw Est Fold Change (24 HOUR): 4.03; SOCS1 Raw Est Fold Change (24 HOUR): −9.88; SOCS3 Raw Est Fold Change (24 HOUR): −3.51; SPTLC2 Raw Est Fold Change (24 HOUR): −10.08; SQLE Raw Est Fold Change (24 HOUR): −1.98; SQRDL Raw Est Fold Change (24 HOUR): −1.45; SSBP3 Raw Est Fold Change (24 HOUR): 1.35; STAT1 Raw Est Fold Change (24 HOUR): −2.14; STEAP4 Raw Est Fold Change (24 HOUR): −65.16; TAP1 Raw Est Fold Change (24 HOUR): −1.60; TAP2 Raw Est Fold Change (24 HOUR): −1.54; TBX3 Raw Est Fold Change (24 HOUR): 1.42; TCF7L2 Raw Est Fold Change (24 HOUR): −1.29; TEAD4 Raw Est Fold Change (24 HOUR): −2.33; TFPI Raw Est Fold Change (24 HOUR): −1.38; THBD Raw Est Fold Change (24 HOUR): −9.02; THBS1 Raw Est Fold Change (24 HOUR): −1.44; TMEM2 Raw Est Fold Change (24 HOUR): −1.35; TMEM49 Raw Est Fold Change (24 HOUR): −2.07; TMEM67 Raw Est Fold Change (24 HOUR): −4.34; TNFSF13B Raw Est Fold Change (24 HOUR): 1.36; TRIM14 Raw Est Fold Change (24 HOUR): 1.36; TRIM26 Raw Est Fold Change (24 HOUR): 1.56; TXNIP Raw Est Fold Change (24 HOUR): −1.37; UBE2S Raw Est Fold Change (24 HOUR): −1.40; USP12 Raw Est Fold Change (24 HOUR): −1.96; USP25 Raw Est Fold Change (24 HOUR): −1.22; VAT1 Raw Est Fold Change (24 HOUR): 1.21; YWHAE Raw Est Fold Change (24 HOUR): −1.11; ZFYVE26 Raw Est Fold Change (24 HOUR): 1.31; ZNF24 Raw Est Fold Change (24 HOUR): −1.16; ZNF295 Raw Est Fold Change (24 HOUR): −1.84; ABHD5 Raw Est Fold Change (DAY 7): −2.05; ACSL1 Raw Est Fold Change (DAY 7): 1.78; ADM Raw Est Fold Change (DAY 7): −3.85; AGXT Raw Est Fold Change (DAY 7): 2.54; AHR Raw Est Fold Change (DAY 7): −2.08; AKR1B1 Raw Est Fold Change (DAY 7): −3.52; AKT3 Raw Est Fold Change (DAY 7): −5.29; ALCAM Raw Est Fold Change (DAY 7): −1.46; ALDH1A1 Raw Est Fold Change (DAY 7): 1.54; AMPH Raw Est Fold Change (DAY 7): −21.01; APOL6 Raw Est Fold Change (DAY 7): 1.36; ARHGDIB Raw Est Fold Change (DAY 7): −3.40
